Experimental data from patent US20250066286A1, “COMPOSITIONS OF (Z)-ENDOXIFEN AND METHODS OF ENRICHMENT THEREOF” (Atossa Therapeutics, Inc., priority 2022, published 2025).
≈ marks a conversion by molar mass, not a printed value. Read-outs that look alike come from different tables or passages of the source.

Assay: Solubility testing of (Z)-endoxifen in single solvents
Type: physicochemical
Conditions: for solubility at 15 min: 25 °C; for solubility at 15 min / solubility: organic solvent or mixture, thermodynamic from solid
Procedure: To test the solubility of (Z)-endoxifen in varying conditions, 10 mg of (Z)-endoxifen was added to a stoppered tube, and 0.01 ml of the selected solvent was added (1000 mg/ml solution). The tube was shaken vigorously for 1 minute and then incubated at a constant temperature of 25.0° C. for 15 minutes. If the solid was not completed dissolved, the tube was shaken again and placed at the constant temperature of 25.0° C. for another 15 minutes. If the solid was completely dissolved at this step, it was considered to be very soluble in the selected solvent system. If the solid was not dissolved by this step, another 0.09 ml was added (yielding a 100 mg/ml solution) and an attempt to further dissolve the solid was made by the same steps of shaking and incubating twice over as described previously. If the solid was completely dissolved at this step, it was considered freely soluble. If the solid was not dissolved by this step another 0.2 ml was added (yielding a 33.3 mg/ml solution) and an attempt to further dissolve the solid was made by the same steps of shaking and incubating twice over as described previously. If the solid was completely dissolved at this step, it was considered soluble. If the solid was not dissolved by this step another, 0.7 ml was added (yielding a 10 mg/ml solution) and an attempt to further dissolve the solid was made by the same steps of shaking and incubating twice over as described previously. If the solid was completely dissolved at this step, it was considered sparingly soluble. If the solid was not dissolved by this step the sample was considered to be slightly soluble or very slightly soluble and the solution was heated until the boiling point of the solvent system (max 100° C.) under stirring with a rate of 0.5° C. per minute temperature ramp rate to verify the solubility at high temperatures. The hot solution was after cooled to room temperature with a cooling rate of 0.5° C. per minute to verify if the sample had precipitated after up to 18 hours under magnetic stirring. The same procedure was also used for the solvent mixture solubility tests. The concentrations investigated for the solvent mixture stability were 40 mg/ml and 100 mg/ml. Some solutions in the following example were precipitated by cooling of the solution from a temperature between 50-100° C. to between 10-25° C. at a rate ranging from −0.2 to −0.5° C./minute resulting in a precipitate.

- solubility at 15 min (2-propanol, 2-propanol, room temperature, read-out: Solubility): 10000 µg/mL (≈ 26.8 mM)
- solubility at 15 min (2-propanol, solvent 2-propanol, room temperature, read-out: Solubility at RT): 10000 µg/mL (≈ 26.8 mM)
- solubility (2-propanol, 2-propanol, high temperature, read-out: Solubility): 20 to 100 mg/mL (≈ 53.5 to 268 mM)
- solubility at 15 min (4-met-2-pentanone, 4-met-2-pentanone, room temperature, read-out: Solubility): 10000 µg/mL (≈ 26.8 mM)
- solubility (4-met-2-pentanone, 4-met-2-pentanone, high temperature, read-out: Solubility): 100 to 200 mg/mL (≈ 268 to 535 mM)
- solubility at 15 min (DMF, DMF, read-out: Solubility): 250000 to 500000 µg/mL (≈ 669 to 1340 mM)
- solubility at 15 min (THF, THF, read-out: Solubility): 111000 to 125000 µg/mL (≈ 297 to 335 mM)
- solubility at 15 min (acetone, acetone, room temperature, read-out: Solubility): 10000 µg/mL (≈ 26.8 mM)
- solubility at 15 min (acetone, solvent acetone, room temperature, read-out: Solubility at RT): 10000 µg/mL (≈ 26.8 mM)
- solubility (acetone, acetone, high temperature, read-out: Solubility): < 50 mg/mL
- solubility (acetone, solvent acetone, 100 mg/mL, high temperature, read-out: Solubility HT (100 mg/mL): Sol. HT): < 100 mg/mL
- solubility at 15 min (acetonitrile, acetonitrile, room temperature, read-out: Solubility): < 10000 µg/mL
- solubility at 15 min (acetonitrile, solvent acetonitrile, room temperature, read-out: Solubility at RT): < 10000 µg/mL
- solubility (acetonitrile, acetonitrile, high temperature, read-out: Solubility): 20 to 100 mg/mL (≈ 53.5 to 268 mM)
- solubility (acetonitrile, solvent acetonitrile, 100 mg/mL, high temperature, read-out: Solubility HT (100 mg/mL): Sol. HT): < 100 mg/mL
- solubility at 15 min (butyl acetate, butyl acetate, room temperature, read-out: Solubility): 10000 µg/mL (≈ 26.8 mM)
- solubility at 15 min (butyl acetate, solvent butyl acetate, room temperature, read-out: Solubility at RT): 10000 µg/mL (≈ 26.8 mM)
- solubility (butyl acetate, butyl acetate, high temperature, read-out: Solubility): 20 to 100 mg/mL (≈ 53.5 to 268 mM)
- solubility at 15 min (butyl methyl ether, solvent butyl methyl ether, room temperature, read-out: Solubility at RT): 10000 µg/mL (≈ 26.8 mM)
- solubility (butyl methyl ether, solvent butyl methyl ether, 10 mg/mL, high temperature, read-out: Solubility HT (10 mg/mL): Sol. HT): < 10 mg/mL
- solubility at 15 min (dimethylformamide (stored as limethylformamide), solvent limethylformamide, room temperature, read-out: Solubility at RT): 200000 to 250000 µg/mL (≈ 535 to 669 mM)
- solubility at 15 min (ethanol, ethanol, room temperature, read-out: Solubility): 10000 µg/mL (≈ 26.8 mM)
- solubility at 15 min (ethanol, solvent ethanol, room temperature, read-out: Solubility at RT): 10000 µg/mL (≈ 26.8 mM)
- solubility (ethanol, ethanol, high temperature, read-out: Solubility): 20 to 100 mg/mL (≈ 53.5 to 268 mM)
- solubility at 15 min (ethyl acetate, ethyl acetate, room temperature, read-out: Solubility): 10000 µg/mL (≈ 26.8 mM)
- solubility at 15 min (ethyl acetate, solvent ethyl acetate, room temperature, read-out: Solubility at RT): 10000 µg/mL (≈ 26.8 mM)
- solubility (ethyl acetate, ethyl acetate, high temperature, read-out: Solubility): 20 to 100 mg/mL (≈ 53.5 to 268 mM)
- solubility at 15 min (heptane, heptane, room temperature, read-out: Solubility): < 10000 µg/mL
- solubility at 15 min (heptane, solvent heptane, room temperature, read-out: Solubility at RT): < 10000 µg/mL
- solubility (heptane, heptane, high temperature, read-out: Solubility): < 10 mg/mL
- solubility (heptane, solvent heptane, 10 mg/mL, high temperature, read-out: Solubility HT (10 mg/mL): Sol. HT): < 10 mg/mL
- solubility at 15 min (methanol, methanol, read-out: Solubility): 17000 to 20000 µg/mL (≈ 45.5 to 53.5 mM)
- solubility at 15 min (methanol, solvent methanol, room temperature, read-out: Solubility at RT): 17000 to 20000 µg/mL (≈ 45.5 to 53.5 mM)
- solubility at 15 min (methyl isobutyl ketone (4-methyl-2-pentanone), solvent methyl isobutyl ketone (4-methyl-2-pentanone), room temperature, read-out: Solubility at RT): 10000 µg/mL (≈ 26.8 mM)
- Solubility HT (10 mg/mL): Clear point (solvent 2-propanol, 10 mg/mL): 44 °C
- Solubility HT (10 mg/mL): Sol. HT (solvent 2-propanol, 10 mg/mL, high temperature): YES
- Solubility HT (20 mg/mL): Clear point (solvent 2-propanol, 20 mg/mL): 50.6 °C
- Solubility HT (20 mg/mL): Sol. HT (solvent 2-propanol, 20 mg/mL, high temperature): YES
- Solubility HT (20 mg/mL): Re-PPT (solvent 2-propanol, 20 mg/mL, on cooling): YES
- Solubility HT (100 mg/mL): Clear point (solvent 2-propanol, 100 mg/mL): 74.4 °C
- Solubility HT (100 mg/mL): Cloudy point (solvent 2-propanol, 100 mg/mL): 43.9 °C
- Solubility HT (100 mg/mL): Sol. HT (solvent 2-propanol, 100 mg/mL, high temperature): YES
- Solubility HT (100 mg/mL): Re-PPT (solvent 2-propanol, 100 mg/mL, on cooling): YES
- Solubility HT (10 mg/mL): Clear point (solvent acetone, 10 mg/mL): 30 °C
- Solubility HT (10 mg/mL): Sol. HT (solvent acetone, 10 mg/mL, high temperature): YES
- Solubility HT (20 mg/mL): Clear point (solvent acetone, 20 mg/mL): 38 °C
- Solubility HT (20 mg/mL): Re-PPT after 18 hours at −20° C. (solvent acetone, 20 mg/mL): YES
- Solubility HT (20 mg/mL): Sol. HT (solvent acetone, 20 mg/mL, high temperature): YES
- Solubility HT (10 mg/mL): Clear point (solvent acetonitrile, 10 mg/mL): 56 °C
- Solubility HT (10 mg/mL): Sol. HT (solvent acetonitrile, 10 mg/mL, high temperature): YES
- Solubility HT (10 mg/mL): Re-PPT (solvent acetonitrile, 10 mg/mL, on cooling): YES
- Solubility HT (20 mg/mL): Clear point (solvent acetonitrile, 20 mg/mL): 75 °C
- Solubility HT (20 mg/mL): Sol. HT (solvent acetonitrile, 20 mg/mL, high temperature): YES
- Solubility HT (20 mg/mL): Re-PPT (solvent acetonitrile, 20 mg/mL, on cooling): YES
SMILES: CC/C(=C(\c1ccc(O)cc1)c1ccc(OCCNC)cc1)c1ccccc1 [(Z)-endoxifen, (Z)-4-(1-(4-(2-(methylamino)ethoxy)phenyl)-2-phenylbut-1-enyl)phenol]
